We go through 20 molecules from patent US9504676B2, “Molecules inhibiting a metabolic pathway involving the Syk protein tyrosine kinase and method for identifying said molecules” (CENTRE NATIONAL DE LA RECHERCHE SCIENTIFIQUE, priority 2008, dated 2016).

Usually inhibition stands for the drop in the measured response relative to a control, in per cent. A word on the Kd: it is the free concentration of one partner at which half of the binding sites on the other are occupied at equilibrium, for simple one-to-one binding. The IC50 is the concentration that gives 50% inhibition.

The target of assay [1] is T1, murine Syk tyrosine kinase protein (GST:Syk 6-242) (Mus musculus, UniProt P48025).
T1 construct: made in house
The assay is described as follows: ADA method: displacement of the binding of scFv G4G11 with Syk (ELISA). Conditions: for inhibition at 10 µM: small molecules at 10 μM, scFv G4G11 100 nM, read-out: In vit. inhib.: mean inhibition % of the binding of scFv G4G11 with Syk in the ADA method. The gist of the method: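 GST:Syk 6-242 (murine) was immobilised at 10 μg ml^−1 and pre-incubated 1 h at ambient temperature with compounds at 10 μM final in PBS. scFv G4G11 was then added at 100 nM for 1 h. Bound scFv was detected via its C-terminal c-myc tag with HRP-9E10, and % inhibition was taken from signals with versus without compound.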
In general terms: An ELISA detects its analyte on a solid surface through an enzyme-linked reagent.

Assay [2] addresses T2, Syk protein (UniProt P48025).
T2 construct: none given for this test; fused on or other part: probably GST at the N-terminus (GST:Syk 6-242), if the ADA protein was also used here
Kind of assay: In vitro affinity for Syk by fluorescence spectroscopy (spectrofluorometry). It counts as binding. The settings on record: read-out: Kd: dissociation constant with respect to Syk. The method, then: The dissociation constant of the molecules according to the invention with respect to Syk protein may particularly be measured in vitro by means of fluorescence spectroscopy (or spectrofluorometry).
Finally, the in vitro affinity of the molecule C-13 and some of the 87 molecules mentioned above for Syk protein was measured by means of fluorescence spectroscopy (or spectrofluorometry) and is expressed by the dissociation constant (or Kd) in μmole/liter (μM).

Assay [3] concerns LAT. Kind of assay: Phosphorylation of LAT (phospho-specific antibodies). Conditions: dose-dependent, RBL-2H3 cells. It counts as cell-based, rat.
Assay [4] has as its system SLP-76. Kind of assay: Phosphorylation of SLP-76 (phospho-specific antibodies). It counts as cell-based, rat. Conditions: RBL-2H3 cells.

In the case of `O=C(C1=C(O)C(=O)N(Cc2cccnc2)C1c1cccc(Oc2ccccc2)c1)c1ccc(Cl)cc1` (stereo not shown) [Molecule 1, 4-(4-chlorobenzoyl)-3-hydroxy-5-(3-phenoxyphenyl)-1-(3-pyridinylmethyl)-1,5-dihydro-2H-pyrrol-2-one], the inhibition at 10 µM in assay [1] stood at 86.5%. The Kd in assay [2] was found to be 5 µM.

As to `COc1ccc(C2C(C(=O)c3cccs3)=C(O)C(=O)N2CCCn2ccnc2)c(OC)c1` (stereo not shown) [Molecule 2], the inhibition at 10 µM in assay [1] stood at 81%. In addition, in assay [2], the equilibrium dissociation constant (Kd) was determined as 16.3 µM.

With `CCOC(=O)C1=C(C)NC2=C(C(=O)c3ccccc32)C1c1cc(Br)ccc1OCC(=O)O` (stereo not shown) [Molecule 3, {4-bromo-2-[3-(ethoxy carbonyl)-2-methyl-5-oxo-4,5-dihydro-1H-indeno[1,2-b]pyridin-4-yl]phenoxy} acetic acid], in assay [1], the inhibition at 10 µM amounted to 81%. For the same molecule, in assay [2], the equilibrium dissociation constant (Kd) stood at 6.2 µM.

In the case of `COc1cccc(C2C(C(=O)c3ccc(C)cc3)=C(O)C(=O)N2CCCN2CCOCC2)c1` (stereo not shown) [Molecule 4, 3-hydroxy-5-(3-methoxyphenyl)-4-(4-methylbenzoyl)-1-[3-(4-morpholinyl)propyl]-1,5-dihydro-2H-pyrrol-2-one], the inhibition at 10 µM in assay [1] is 79.5%. The equilibrium dissociation constant (Kd) in assay [2] came out at 9.4 µM.

Regarding `CCOC(=O)c1ccc(N2C(=O)C(O)=C(C(=O)c3ccccc3)C2c2ccc(ON)cc2OC)cc1` (stereo not shown) [Molecule 6], the inhibition at 10 µM in assay [1] came to 73.5%. In addition, the Kd in assay [2] came out at 6.1 µM.

Regarding `CCOC(=O)c1sc(N2C(=O)C(O)=C(C(=O)c3ccc(F)cc3)C2c2ccc(C)cc2)nc1C` (stereo not shown) [Molecule 10, ethyl 2-[3-(4-fluorobenzoyl)-4-hydroxy-2-(4-methylphenyl)-5-oxo-2,5-dihydro-1H-pyrrol-1-yl]-4-methyl-1,3-thiazole-5-carboxylate], the inhibition at 10 µM in assay [1] amounted to 71%. Also, the Kd in assay [2] is 6.3 µM.

On to `COc1ccccc1C(=O)Nc1ccc(-c2nnc(SCC(=O)c3ccccc3)n2C)cc1` [Molecule 15, 2-methoxy-N-(4-(4-methyl-5-[(2-oxo-2-phenylethyl)thio]-4H-1,2,4-triazol-3-yl)phenyl)benzamide], for which the inhibition at 10 µM in assay [1] came out at 67.5%. In addition, the Kd in assay [2] came out at 5.6 µM.

For `COc1ccc(C)cc1NC(=O)c1ccc(CN2CCC(Cc3ccccc3)CC2)cc1` [Molecule 17, 4-[(4-benzyl-1-piperidinyl)methyl}-N-(2-methoxy-5-methylphenyl)benzamide], the inhibition at 10 µM in assay [1] stood at 63%. Besides, in assay [2], the Kd was 17.9 µM.

Regarding `COc1ccc(S(=O)(=O)N(CCc2ccccc2)CC(=O)Nc2ccc(C(N)=O)cc2)cc1` [Molecule 18], the inhibition at 10 µM in assay [1] was found to be 63%. Moreover, the Kd in assay [2] is 0.8 µM.

Take `O=C(NCc1nnc(NCc2nc3ccccc3c(=O)[nH]2)n1-c1ccccc1)c1ccccc1F` [Molecule 29]: in assay [1], the inhibition at 10 µM came out at 53.5%. In addition, the Kd in assay [2] is 6.7 µM.

Consider `O=C(Nc1ccccc1)c1ccc(NCCN2CCOCC2)c(S(=O)(=O)N2CCOCC2)c1` [Molecule 46, 4-{[2-(4-morpholinyl)ethyl]amino}-3-(4-morpholinylsulphonyl)-N-phenylbenzamide], for which, in assay [1], the inhibition at 10 µM is 48%. The Kd in assay [2] was 3 µM.

`Cc1cc(C(=O)Nc2ccccc2C(=O)O)ccc1NC(=O)COc1ccc(C(C)C)cc1` [Molecule 49, 2-[(4-{[(4-isopropylphenoxy)acetyl]amino}-3-methylbenzoyl)amino] benzoic acid]: the inhibition at 10 µM in assay [1] came out at 46.5%. Besides, the equilibrium dissociation constant (Kd) in assay [2] came out at 5.5 µM.

In the case of `CCOC(=O)c1ccc(NC(=O)CSc2nnc(-c3ccco3)c(-c3ccco3)n2)cc1` [Molecule 54, ethyl 4-({[(5,6-di-2-furyl-1,2,4-triazin-3-yl)thio]acetyl}amino)benzoate], the inhibition at 10 µM in assay [1] was determined as 43%. In addition, the Kd in assay [2] was 1.6 µM.

With `COc1cc(-c2nnc(SCC(=O)Nc3ccc(Cl)cc3)n2CCc2ccccc2)cc(OC)c1OC` [Molecule 59], the inhibition at 10 µM in assay [1] amounted to 40%. Moreover, the Kd in assay [2] was 8.2 µM.

For the molecule `CCOC(=O)c1ccc(NC(=O)CC2C(=O)N(c3ccc(Cl)cc3)C(=S)N2Cc2cccnc2)cc1` (stereo not shown) [Molecule 61], the inhibition at 10 µM in assay [1] came out at 39.5%. Moreover, the Kd in assay [2] was determined as 21.8 µM.

As for `C=CCn1c(SCC(=O)Nc2cccc(OC)c2)nnc1C(C)NC(=O)c1ccccc1` (stereo not shown) [Molecule 66, N-{1-[4-allyl-5-({2-[(3-methoxyphenyl)amino]-2-oxoethyl}thio)-4H-1,2,4-triazol-3-yl]ethyl} benzamide], the inhibition at 10 µM in assay [1] came to 35%. In assay [2], the Kd came to 8 µM.

With `C=CCn1c(CNC(=O)c2cccc(C)c2)cnc1SCC(=O)Nc1cccc(C(=O)OC(C)C)c1` [Molecule 75], in assay [1], the inhibition at 10 µM came out at 27%. Also, the Kd in assay [2] is 4.8 µM.

Consider `CCn1c(CCC(=O)c2ccc(Cl)cc2)nnc1SCC(=O)Nc1ccc(Br)c(C)c1C` [Molecule 82], for which the inhibition at 10 µM in assay [1] was 20%. The Kd in assay [2] was 3.2 µM.

`CCOc1ccc(NC(=O)CC2C(=O)N(c3ccc(OC)cc3)C(=S)N2CCN2CCOCC2)cc1` (stereo not shown) [Molecule 84, N-(4-ethoxyphenyl)-2-{1-(4-methoxyphenyl)-3-[2-(4-morpholinyl)ethyl]-5-oxo-2-thioxo-4-imidazolidinyl}acetamide]: in assay [1], the inhibition at 10 µM worked out at 19%. Also, the equilibrium dissociation constant (Kd) in assay [2] worked out at 15.6 µM.

On to `COC(=O)c1ccccc1-c1ccc(/C=C2/SC(=S)N(Cc3ccccc3)C2=O)o1` [Molecule C-13, methyl 2-{5-[(3-benzyl-4-oxo-2-thioxo-1,3-thiazolidin-5-ylidene)methyl]-2-furyl}benzoate], for which the concentration for half-maximal inhibition (IC50) in assay [1] (ADA method, read-out: estimated IC50 for competing with the binding of scFv G4G11 with Syk) is approximately 4 µM. Also, the inhibition at 10 µM in assay [1] was determined as 81%. Besides, in assay [2], the Kd was determined as 4.8 ± 0.2 µM. For the same molecule, the “phosphorylation of LAT” value in assay [3] was “increases”. The “phosphorylation of SLP-76” value in assay [4] is “inhibits”.
